In article PMC5458211, “Mitochondrial VDAC1-based peptides: Attacking oncogenic properties in glioblastoma” (Oncotarget, 2017):
Non-standard residues stand in square brackets, D forms with d. Residues, ends and D or L forms follow the SMILES beside them.

Assays:
[1] = tested on: GL-261MG cells; assay: Cell death by PI staining and flow cytometry, GL-261MG; format: cell-based; conditions: mouse glioblastoma, 6 h at 37°C, serum-free medium, Suppl Fig 1
Procedure: Cells (6×10^5 /ml) were incubated in 500 μl serum-free medium with the peptide of interest for 6 h at 37°C in the presence of 5% CO2. The cells were then trypsinized, centrifuged (1500xg, 5 min), washed with PBS and analyzed for cell death using propidium iodide (PI) staining and flow cytometer (Beckton-Dickinson, San Jose, CA) and BD CellQuest Pro software. Apoptotic cell death was also analyzed by PI and annexin V-FITC staining, and by acridine orange and ethidium bromide staining and light microscopy (Olympus LX2-KSP). […]
was subsequently visualized by incubating with DAB. […]
Supplementary Figure 1: VDAC1-based peptides induce dramatic cell death of several brain tumor-derived cell […]
Ter-Antp (●) peptide in serum-free appropriate growth medium for 6 h at 37°C. Cells were harvested, washed twice with PBS and cell death was analyzed by propidium iodide (PI) staining and ﬂow cytometry. D. Summary of IC50 values (μM) for the peptides with the indicated […]
(also on this page, place not known: www.impactjournals.com/oncotarget/ Oncotarget, Materials 2017 V , Supplementary) […]

[2] = tested on: cellular ATP levels in U-87MG cells; assay: Cellular ATP levels (CellTiter-Glo); format: cell-based, human; conditions: 3 h, % of control, n=2 or 3
Procedure: Figure 2 Mode of action of VDAC1-based peptides – interacting with- and detaching HK, releasing Cyto c, decreasing ATP level and inducing apoptosis A. Purified HK-II was fluorescently labeled using the NanoTemper protein-labeling Kit BLUE. […] Then, 3-5 μl of the samples were loaded into MST-grade glass capillaries and thermophoresis was measured using a Monolith-NT115 apparatus, as described in Materials and methods available online in Supplemental information. […] The final DMSO concentration in control and peptide-treated cells was 0.07%. Fixed cells were visualized using confocal microscopy (Olympus 1×81), as described in Materials and Methods available online in Supplemental information. […] The levels of HK in the supernatants were quantified and are presented as relative units. D. D-ΔN-Ter-Antp induces mitochondrial inner membrane depolarization analyzed as described in Materials and Methods available online in Supplemental information. […] Cells then were analyzed for Δψ using TMRM. Δψ is presented as percentage of control. […] Release of Cyto c from the mitochondria was analyzed by immunostaining using anti-Cyto c antibodies and confocal microscopy (Olympus 1×81) as described in Materials and Methods available online in Supplemental information. […] Quantification of apoptosis in control and peptide's treated cells are presented bellow the images. […]

CC[C@@H](C)[C@@H](NC(=O)[C@@H](CCCCN)NC(=O)[C@H](NC(=O)[C@@H](CCC(N)=O)NC(=O)[C@@H](CCCNC(=N)N)NC(=O)[C@@H](CC(C)C)NC(=O)CNC(=O)[C@@H](Cc1ccccc1)NC(=O)CNC(=O)[C@@H](Cc1ccc(O)cc1)NC(=O)CNC(=O)[C@@H](CCCCN)NC(=O)[C@H](NC(=O)[C@@H](Cc1ccccc1)NC(=O)[C@H](NC(=O)[C@@H](CC(=O)O)NC(=O)[C@H](N)CCCNC(=N)N)C(C)C)[C@H](C)O)[C@H](C)CC)C(=O)N[C@H](Cc1c[nH]c2ccccc12)C(=O)N[C@H](Cc1ccccc1)C(=O)N[C@H](CCC(N)=O)C(=O)N[C@H](CC(N)=O)C(=O)N[C@H](CCCNC(=N)N)C(=O)N[C@H](CCCNC(=N)N)C(=O)N[C@H](CCSC)C(=O)N[C@H](CCCCN)C(=O)N[C@H](Cc1c[nH]c2ccccc12)C(=O)N[C@H](CCCCN)C(=O)N[C@H](CCCCN)C(=O)O [D-ΔN-Ter-Antp] (H-[dR][dD][dV][dF][dT][dK]G[dY]G[dF]G[dL][dR][dQ][dI][dK][dI][dW][dF][dQ][dN][dR][dR][dM][dK][dW][dK][dK]-OH; N-terminus and C-terminus assumed)
cell death, GL-261MG [1]: effectively induce cell death | decrease in cellular ATP levels [2]: about 80%

CC[C@H](C)[C@H](NC(=O)[C@H](C)NC(=O)[C@@H](N)Cc1c[nH]cn1)C(=O)N[C@@H](Cc1ccc(O)cc1)C(=O)N1CCC[C@H]1C(=O)N[C@@H](CCCNC(=N)N)C(=O)N[C@@H](Cc1c[nH]cn1)C(=O)N[C@@H](CO)C(=O)N[C@@H](Cc1c[nH]c2ccccc12)C(=O)N[C@H](C(=O)N[C@@H](Cc1c[nH]c2ccccc12)C(=O)N[C@@H](CCC(=O)O)C(=O)N[C@H](CCCCN)C(=O)N[C@H](CCCCN)C(=O)N[C@H](CC(C)C)C(=O)N[C@H](CCC(=O)O)C(=O)N[C@@H](C(=O)N[C@H](C)C(=O)N[C@@H](C(=O)N[C@H](CC(N)=O)C(=O)N[C@H](CC(C)C)C(=O)N[C@H](C)C(=O)N[C@H](Cc1c[nH]c2ccccc12)C(=O)N[C@@H](C(=O)N[C@H](C)C(=O)NCC(=O)N[C@H](CC(N)=O)C(=O)N[C@H](CO)C(=O)N[C@H](CC(N)=O)C(=O)N[C@@H](CCCCN)C(=O)N[C@@H](Cc1c[nH]c2ccccc12)C(=O)N[C@H](C(=O)N[C@@H](Cc1c[nH]c2ccccc12)C(=O)N[C@@H](CCCCN)C(=O)O)[C@@H](C)O)[C@H](C)O)C(C)C)[C@H](C)O)[C@@H](C)O [Tf-D-LP4]
cell death, GL-261MG [1]: effectively induce cell death | decrease in cellular ATP levels [2]: about 50%
